Measurements from patent US5116941A, “Peptide substrates for determination of enzyme activity” (Nitto Boseki Co., Ltd., priority 1988, dated 1992).
Where a name gives a salt, the structure may show the parent alone. Where a SMILES comes first, the peptide text is derived from it.

What was measured:
factor Xa [1] = target: factor Xa (Homo sapiens, UniProt P00742); details: it is known; cited from earlier work
Kallikrein = assay: Substrate specificity: enzyme reaction with kallikrein, colorimetric; format: biochemical, Swine; details: So = 0.4 mmol, 37° C., 5 minutes, pH 7.8
Procedure: (§1) Specificity of each of the new substrates synthesized in Examples 1 through 4 was examined by reacting with each enzyme. Details of reagents used are as described below.
(§2) (2) Buffer: concentration of Tris, NaCl and CaCl2 and pH (25° C.) were set as shown below, depending upon enzyme. […]
(§3) Enzyme used and its source, etc. are as follows. […]
(§4) (4) Terminate solution (PNA): 10% acetic acid
(§5) (5) Color forming reagent (CHA): pentacyanoamineferroate
(§6) Buffer, 0.5 ml and 0.1 ml of substrate solution are charged in a silicone-treated hard glass test tube or plastic test tube. The mixture is previously heated for 10 minutes in a thermostat at 37° C. Then, 0.1 ml of enzyme solution is added to the mixture to perform enzyme reaction at 37° C. for 5 minutes. Accurately 5 minutes after, 2.0 ml of the terminate solution is added to stop the enzyme reaction. Then the reaction mixture is allowed to stand at 37° C. for 10 minutes and its absorbance is measured at 405 nm or 700 nm.

Plasmin [2] = target: T1, Plasmin (Homo sapiens, UniProt P00747); assay: Substrate specificity: enzyme reaction with plasmin, colorimetric; format: biochemical; set-up: purchased Green Cross Company Lot PL-35; details: for absorbance (O.D.) measured, PL: So = 0.4 mmol, 37° C., 5 minutes, pH 7.8
Procedure: as §1, §2, §3
Target sequence in this assay (P00747 581-810 limits assumed): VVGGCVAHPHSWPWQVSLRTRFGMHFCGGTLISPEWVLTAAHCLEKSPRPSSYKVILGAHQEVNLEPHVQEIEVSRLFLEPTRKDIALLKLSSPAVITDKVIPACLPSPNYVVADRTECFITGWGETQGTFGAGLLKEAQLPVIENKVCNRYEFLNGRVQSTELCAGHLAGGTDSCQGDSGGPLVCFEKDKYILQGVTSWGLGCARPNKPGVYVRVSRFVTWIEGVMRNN
Target sequence in this assay (P00747 97-580 partner limits assumed): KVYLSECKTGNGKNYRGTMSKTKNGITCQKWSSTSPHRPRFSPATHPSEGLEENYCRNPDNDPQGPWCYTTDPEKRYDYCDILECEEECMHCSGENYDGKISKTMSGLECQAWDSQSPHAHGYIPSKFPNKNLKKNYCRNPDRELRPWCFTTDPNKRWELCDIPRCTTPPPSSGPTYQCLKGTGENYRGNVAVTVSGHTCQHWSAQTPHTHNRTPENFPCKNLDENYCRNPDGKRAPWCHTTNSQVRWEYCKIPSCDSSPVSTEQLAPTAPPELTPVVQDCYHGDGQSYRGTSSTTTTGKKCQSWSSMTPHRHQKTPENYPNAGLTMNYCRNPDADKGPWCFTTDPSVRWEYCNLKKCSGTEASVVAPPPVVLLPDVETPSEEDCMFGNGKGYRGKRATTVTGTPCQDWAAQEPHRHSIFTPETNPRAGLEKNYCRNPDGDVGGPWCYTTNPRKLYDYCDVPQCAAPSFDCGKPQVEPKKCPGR
Plasmin Human Green Cross PL-35 0.25 CU/ml
as §4, §5, §6

thrombin [3] = target: thrombin (Homo sapiens, UniProt P00734); details: it is known; cited from earlier work
Plasmin [4] = target: T1, Plasmin; details: it is known; cited from earlier work
Target sequence in this assay (P00747 581-810 limits assumed, species assumed): as the sequence (P00747 581-810 limits assumed) above
Target sequence in this assay (P00747 97-580 partner limits assumed, species assumed): as the sequence (P00747 97-580 partner limits assumed) above

Thrombin [5] = target: T2, Thrombin (Bos taurus, UniProt P00735); assay: Substrate specificity: enzyme reaction with thrombin, colorimetric; format: biochemical, Bovine; details: for absorbance (O.D.) measured, TH: So = 0.4 mmol, 37° C., 5 minutes, pH 8.5
T2 construct: purchased Mochida Pharmaceutical Company Lot 65146
Procedure: as §1, §2, §3, §4, §5, §6

Trypsin = target: T3, Trypsin (Bos taurus, UniProt P00760); assay: Substrate specificity: enzyme reaction with trypsin, colorimetric; format: biochemical, Bovine; details: for absorbance (O.D.) measured, Try: So = 0.4 mmol, 37° C., 5 minutes, pH 8.0
T3 construct: purchased Wersinton (so in the source)
T3 sequence (P00760 24-246): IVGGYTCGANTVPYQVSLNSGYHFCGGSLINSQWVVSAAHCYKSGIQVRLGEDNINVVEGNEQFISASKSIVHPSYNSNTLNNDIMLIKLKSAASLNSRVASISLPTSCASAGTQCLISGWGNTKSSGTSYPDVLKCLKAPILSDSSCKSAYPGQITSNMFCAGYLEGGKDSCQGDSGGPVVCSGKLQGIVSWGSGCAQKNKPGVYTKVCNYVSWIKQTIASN
Procedure: as §1, §2, §3
Trypsin Bovine Wersinton 31M771 10 μg/ml
as §4, §5, §6

Factor Xa [6] = target: T4, Factor Xa (Bos taurus, UniProt P00743); assay: Substrate specificity: enzyme reaction with factor Xa, colorimetric; format: biochemical, Bovine; details: for absorbance (O.D.) measured, FXa: So = 0.4 mmol, 37° C., 5 minutes, pH 8.3
T4 construct: purchased Sigma Inc. Lot 73F-9450
Procedure: as §1, §2, §3, §4, §5, §6

[7] = 700 nm, pentacyanoamineferroate
[8] = CHR-TRY is made 100, So=0.4 mmol

T4 sequence (P00743 234-492 limits assumed): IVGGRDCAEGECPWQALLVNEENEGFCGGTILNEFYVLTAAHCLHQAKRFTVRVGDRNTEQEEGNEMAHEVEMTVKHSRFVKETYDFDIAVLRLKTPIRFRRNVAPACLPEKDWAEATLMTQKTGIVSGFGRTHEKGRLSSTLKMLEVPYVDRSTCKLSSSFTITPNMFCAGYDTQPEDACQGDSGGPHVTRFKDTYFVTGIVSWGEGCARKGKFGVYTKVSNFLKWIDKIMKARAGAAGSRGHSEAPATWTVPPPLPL
T4 sequence (P00743 41-180 partner limits assumed): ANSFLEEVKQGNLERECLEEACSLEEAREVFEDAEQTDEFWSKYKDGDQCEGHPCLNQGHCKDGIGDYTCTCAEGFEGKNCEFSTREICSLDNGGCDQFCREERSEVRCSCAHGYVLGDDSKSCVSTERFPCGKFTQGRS
factor Xa, sequence (P00742 235-488 limits assumed): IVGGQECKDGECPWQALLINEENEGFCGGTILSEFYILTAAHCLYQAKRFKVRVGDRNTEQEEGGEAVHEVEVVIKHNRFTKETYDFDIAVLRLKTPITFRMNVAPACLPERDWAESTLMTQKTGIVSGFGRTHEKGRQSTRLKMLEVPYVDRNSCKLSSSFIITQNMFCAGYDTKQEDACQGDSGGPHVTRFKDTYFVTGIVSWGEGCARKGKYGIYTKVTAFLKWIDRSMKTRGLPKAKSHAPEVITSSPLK
factor Xa, sequence (P00742 41-179 partner limits assumed): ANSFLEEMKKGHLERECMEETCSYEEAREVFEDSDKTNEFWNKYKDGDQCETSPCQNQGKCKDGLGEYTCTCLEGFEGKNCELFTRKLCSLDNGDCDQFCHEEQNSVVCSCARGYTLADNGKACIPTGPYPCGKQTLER

Compound	absorbance (O.D.) measured, KL (Kallikrein; [7]) [O.D.]	absorbance (O.D.) measured, PL (Plasmin [2]; [7]) [O.D.]	absorbance (O.D.) measured, TH (Thrombin [5]; [7]) [O.D.]	absorbance (O.D.) measured, Try (Trypsin; [7]) [O.D.]	absorbance (O.D.) measured, FXa (Factor Xa [6]; [7]) [O.D.]	also measured
CC(C)[C@H](NC(=O)OCc1ccccc1)C(=O)NCC(=O)N[C@@H](CCCNC(=N)N)C(=O)Nc1ccc([N+](=O)[O-])cc1 [CHR-TRY, Benzyloxy-carbonyl-Val-Gly-Arg-p-Nitroanilide, reference compound] (HELM PEPTIDE1{[O=C(OCc1ccccc1)[*:2]].V.G.R.[O=[N+]([O-])c1ccc(N[*:1])cc1]}$$$$V2.0)	–	–	–	–	–	reaction with factor Xa (factor Xa [1]): considerably reacts; absorbance (O.D.) measured, KL (Kallikrein; 405 nm (PNA substrate)): 0.008 O.D.; absorbance (O.D.) measured, PL (Plasmin [2]; 405 nm (PNA substrate)): 0.014 O.D.; reaction with thrombin (thrombin [3]): considerably reacts; reaction with plasmin (Plasmin [4]): considerably reacts; absorbance (O.D.) measured, TH (Thrombin [5]; 405 nm (PNA substrate)): 0.050 O.D.; absorbance (O.D.) measured, Try (Trypsin; 405 nm (PNA substrate)): 0.243 O.D.; absorbance (O.D.) measured, FXa (Factor Xa [6]; 405 nm (PNA substrate)): 0.090 O.D.
N=C(N)NCCC[C@H](NC(=O)[C@@H]1CCCN1C(=O)[C@@H]1CCC(=O)N1)C(=O)Nc1ccc(O)c(C(=O)O)c1 [PS-1242, H--PyroGlu--Pro--Arg--CHA]	0.004	0.013	0.022	0.570	0.008	–
C[C@H](NC(=O)[C@@H]1CCC(=O)N1)C(=O)N[C@@H](CCCNC(=N)N)C(=O)Nc1ccc(O)c(C(=O)O)c1 [PS-1245, H-PyroGlu-Ala-Arg-CHA]	0.005	0.005	0.006	0.676	0.008	reactivity with plasmin relative to CHR-TRY (Plasmin [2]; CHR-TRY is made 100): 36%; Relative Reactivity of Substrate to Each Enzyme, PL (Plasmin [2]; [8]): 36; reactivity with thrombin relative to CHR-TRY (Thrombin [5]; CHR-TRY is made 100): 12%; Relative Reactivity of Substrate to Each Enzyme, TH (Thrombin [5]; [8]): 12; reactivity with trypsin relative to CHR-TRY (Trypsin; CHR-TRY is made 100): 278%; Relative Reactivity of Substrate to Each Enzyme, Try (Trypsin; [8]): 278; reactivity with factor Xa relative to CHR-TRY (Factor Xa [6]; CHR-TRY is made 100): 19%; Relative Reactivity of Substrate to Each Enzyme, FXa (Factor Xa [6]; [8]): 9
N=C(N)NCCC[C@H](NC(=O)[C@@H]1CCCCN1C(=O)[C@@H]1CCC(=O)N1)C(=O)Nc1ccc(O)c(C(=O)O)c1 [PS-1292]	0.002	0.005	0.021	0.814	0.007	–
CC(C)[C@H](NC(=O)[C@@H]1CCC(=O)N1)C(=O)N[C@@H](CCCNC(=N)N)C(=O)Nc1ccc(O)c(C(=O)O)c1 [PS-1293, H--PyroGlu--Val--Arg--CHA.HCl]	0.002	0.007	0.002	0.434	0.007	–
CC[C@H](NC(=O)[C@@H]1CCC(=O)N1)C(=O)N[C@@H](CCCNC(=N)N)C(=O)Nc1ccc(O)c(C(=O)O)c1 [PS-1294, H--PyroGlu--But--Arg--CHA.HCl]	0.003	0.008	0.003	0.588	0.010	–
CCC[C@H](NC(=O)[C@@H]1CCC(=O)N1)C(=O)N[C@@H](CCCNC(=N)N)C(=O)Nc1ccc(O)c(C(=O)O)c1 [PS-1295, H--PyroGlu--NVal--Arg--CHA.HCl]	0.006	0.008	0.002	0.637	0.008	–
CCCC[C@H](NC(=O)[C@@H]1CCC(=O)N1)C(=O)N[C@@H](CCCNC(=N)N)C(=O)Nc1ccc(O)c(C(=O)O)c1 [PS-1296, H--PyroGlu--NLeu--Arg--CHA.HCl]	0.006	0.010	0.002	0.656	0.008	–
N=C(N)NCCC[C@H](NC(=O)CNC(=O)[C@H](N)CCC(=O)O)C(=O)Nc1ccc(O)c(C(=O)O)c1 [PS-1298, H--D--Glu--Gly--Arg--CHA.2HCl]	0.003	0.004	0.002	0.401	0.004	–
H--D--PyroGlu--Ala--Arg--CHA.HCl [PS-1290]	0.002	0.000	0.005	0.403	0.007	–
H--D--PyroGlu--Pro--Arg--CHA.HCl [PS-1291]	0.002	0.004	0.012	0.556	0.007	–
